# Measured values: patent US4368194A, “Pharmacologically active amine boranes” (The United States of America as represented by the …, priority 1981, dated 1983)
# Read-outs that look alike come from different tables or passages of the source.
# What was measured:
# Acid phosphatase [1] = experiment: Lysosomal free acid phosphatase activity, PMNs; assay type: cell-based; conditions: 5 μmoles; for PMNs % Free Acid Phosphatase Activity, pH5: in vitro, 60 min
# Procedure, shortened: (§1)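 Glycogen-elicited peritoneal PMNs, or liver homogenate, incubated with 5 μmoles test drug in 1% CMC for 60 or 20 min at pH 5.0. Acid phosphatase: 0.1 M β-glycerol phosphate, inorganic phosphate read; cathepsin: 2% azocasein, acid-soluble peptides at 366 nm. Free activity expressed as percent of detergent-released total.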
# Cathepsin [2] = experiment: Lysosomal free cathepsin activity, liver homogenate; assay type: biochemical, rats; conditions: 5 μmoles; for Liver % Free Cathepsin Activity, pH5: in vitro, 20 min
# Procedure, shortened: (§2)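 Rat (Sprague Dawley) liver 10% homogenate in 0.25 M sucrose/0.001 M EDTA pH 7.2, incubated 20 min with 5 μmoles test drug in 1% CMC. Acid phosphatase: 0.1 M β-glycerol phosphate, acetate pH 5.0, inorganic phosphate read; cathepsin: 2% azocasein, pH 5.0, acid-soluble fragments at 366 nm. Percent free activity vs. total (0.02% detergent-released).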
# [3] = biological target: T1, prostaglandin synthetase from beef seminal vesicle (Bos taurus, UniProt O62664); experiment: Prostaglandin synthetase activity; assay type: biochemical; conditions: for inhibition at 1 µM / activity at 1 µM: 10^-6 M
# T1 construct: purchased; host or cells: beef seminal vesicle
# T1 sequence (O62664 25-600): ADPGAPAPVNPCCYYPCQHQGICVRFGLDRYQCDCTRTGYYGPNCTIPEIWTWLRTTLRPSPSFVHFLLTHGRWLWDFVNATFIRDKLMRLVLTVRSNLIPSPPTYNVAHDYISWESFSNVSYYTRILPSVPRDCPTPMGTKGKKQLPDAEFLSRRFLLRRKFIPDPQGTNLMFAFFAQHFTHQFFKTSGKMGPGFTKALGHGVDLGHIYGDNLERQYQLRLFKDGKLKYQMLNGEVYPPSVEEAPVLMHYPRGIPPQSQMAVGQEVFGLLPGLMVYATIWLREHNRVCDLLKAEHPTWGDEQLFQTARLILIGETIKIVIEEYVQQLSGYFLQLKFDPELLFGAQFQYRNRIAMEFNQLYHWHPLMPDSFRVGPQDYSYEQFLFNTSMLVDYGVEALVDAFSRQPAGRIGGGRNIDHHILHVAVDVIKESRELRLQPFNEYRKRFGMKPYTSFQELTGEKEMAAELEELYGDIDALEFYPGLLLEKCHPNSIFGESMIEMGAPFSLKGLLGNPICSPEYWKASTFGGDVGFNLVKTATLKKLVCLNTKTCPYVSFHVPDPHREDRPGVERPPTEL
# Experimental: After 1 hr at 37° C. the reaction was stopped with 1 N HCl and extracted with ethyl ether and evaporated. […] The plates were dried and developed in iodine vapor and with the use of prostaglandin standards the appropriate areas were scraped and counted for ^3 H content. Indometacin was used as a standard at 10^-4 M concentration. Test drugs were used at 10^-6 M.
# Male Sprague Dawley rats = experiment: Chronic adjuvant arthritic screen; assay type: in vivo; conditions: indomethacin tested at 10 mg/kg, rats
# Experimental: Male Sprague Dawley rats (about 160 g) were injected at the base of the tail with 0.2 ml of solution of killed and dried Mycobacterium butyricum and digitonin in mineral oil (see Waksman et al., J. Immunol., 85, 403 1960). Test drugs were administered intraperitoneally commencing on day 3 through day 20 at 2.5 mg/kg/day. Animals were sacrificed on day 21, and the feet were excised and weighed.
# cAMP levels in PMNs = experiment: Cyclic-3',5'-adenosine monophosphate levels (cAMP) in PMNs; assay type: cell-based; conditions: 1 h; for activation at 5 µmol: read-out: increase of cyclic adenosine monophosphate levels in PMNs
# Procedure, shortened: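 Glycogen-elicited peritoneal neutrophils in MEM with 10% FCS, pH 7.4, exposed to test drugs at 5μ moles for 1 hr at 37° C; stopped with 6% trichloroacetic acid. cAMP measured by radioimmunoassay with 3H-cAMP tracer, expressed as p mole/10^7 PMNs.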
# CF1 male mice = experiment: Writhing reflex (acetic acid); assay type: in vivo; conditions: for Writhing Reflex: mice
# Procedure, shortened: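 CF1 male mice were dosed with test drug at 20 mg/kg i.p. 20 min before 0.5 ml of 0.6% acetic acid. Abdominal stretches with hind-limb extension were counted over 10 min, starting 5 min after acid.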
# Cathepsin [4] = experiment: Lysosomal free cathepsin activity, PMNs; assay type: cell-based; conditions: 5 μmoles; for PMNs % Free Cathespin Activity, pH5: in vitro, 60 min
# Procedure, shortened: as §1
# [5] = tested on: carrageenan induced edema in mouse foot pads; experiment: Anti-inflammatory screen (carrageenan induced foot edema); assay type: in vivo, mice; conditions: for Anti-inflammatory Screen: mice
# Procedure, shortened: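 Male CF1 mice (~30 g) given 10 mg/kg i.p. in 0.05% polysorbate 80-water, 3 hr and 30 min before 0.05 ml 2% carrageenan injected into the right hind plantar surface, with saline in the left foot as baseline. Feet excised at the ankle after 3 hr and weight increase measured.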
# Acid phosphatase [6] = experiment: Lysosomal free acid phosphatase activity, liver homogenate; assay type: biochemical, rats; conditions: 5 μmoles, in vitro; 20 min
# Procedure, shortened: as §2
# liver mitochondria [7] = experiment: Oxidative phosphorylation, succinate as substrate; assay type: biochemical, rats; conditions: 5 μmoles; for Oxidative Phosphorylation Succinate State 3: ADP stimulated respiration; for Oxidative Phosphorylation Succinate State 4: basal respiration
# Procedure, shortened: (§3)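 Basal and ADP-stimulated respiration of 10% liver homogenates, with succinate (90 μmoles) or α-ketoglutarate (60 μmoles) as substrate, in sucrose/KCl/K2HPO4 medium. Test compounds at 5 μmoles in 1% CMC in 1.8 ml total. Rate given as μl O2 consumed/hr/mg wet liver weight.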
# liver mitochondria [8] = experiment: Oxidative phosphorylation, α-ketoglutarate as substrate; assay type: biochemical, rats; conditions: 5 μmoles; for Oxidative Phosphorylation α Ketoglutarate State 3: ADP stimulated respiration; for Oxidative Phosphorylation α Ketoglutarate State 4: basal respiration
# Procedure, shortened: as §3
# [9] = Hydrolytic, air and moisture stability
# in vivo = conditions: mouse
# Sprague Dawley rats = experiment: Red and white blood cell counts after 3 weeks dosing; assay type: in vivo; conditions: dosing for three weeks intraperitoneally, rats
# Source text: Hematocrits were also obtained.
# [10] = read-out: inhibition of prostaglandin synthesis
# [11] = pH 7.4, read-out: PMNs cAMP Level
# [12] = indomethacin tested at 10 mg/kg
# [13] = 1 h, read-out: Prostaglandin Synthesis
SMILES,"PMNs % Free Acid Phosphatase Activity, pH5 (Acid phosphatase [1])","Liver % Free Cathepsin Activity, pH5 (Cathepsin [2])","inhibition at 1 µM [3, 10]",activity at 5 µmol (cAMP levels in PMNs; [11]),"PMNs % Free Cathespin Activity, pH5 (Cathepsin [4])","Liver % Free Acid Phosphatase Activity, pH5 (Acid phosphatase [6])",inhibition of free acid phosphatase activity in PMNs (Acid phosphatase [1]),"activity at 1 µM [3, 13]",Oxidative Phosphorylation Succinate State 3 (liver mitochondria [7]),Oxidative Phosphorylation Succinate State 4 (liver mitochondria [7]),Oxidative Phosphorylation α Ketoglutarate State 3 (liver mitochondria [8]),Oxidative Phosphorylation α Ketoglutarate State 4 (liver mitochondria [8]),Writhing Reflex (CF1 male mice; 20 mg/kg intraperitoneally),inhibition of PMN cathepsin activity (Cathepsin [4]),Anti-inflammatory Screen ([5]; 10 mg/kg × 2 intraperitoneally),inhibition of free proteolytic cathepsin activity of liver (Cathepsin [2]),both states 3 and 4 respiration with succinate (liver mitochondria [7]),activation at 5 µmol (cAMP levels in PMNs),LD50 (in vivo),alteration of the red blood or white blood cell count/cu mm (Sprague Dawley rats),further results
"COc1ccc2c(c1)c(CC(=O)O)c(C)n2C(=O)c1ccc(Cl)cc1 [Indomethacin, reference compound]",100 ± 2 % Control,67 ± 6 % Control,24%,80%,100 ± 1 % Control,86 ± 4 % Control,–,–,–,–,–,–,–,–,–,–,–,–,–,–,"inhibition at 100 µM ([3]; 10^-4 M, read-out: inhibition of prostaglandin synthesis): 36%; activity at 100 µM ([3]; 1 h, 10^-4 M (indomethacin), read-out: Prostaglandin Synthesis): 64 ± 2%; Anti-Arthritic Screen (Male Sprague Dawley rats): 27 % Control; Writhing Reflex (CF1 male mice; [12]): 43 % Control; Anti-inflammatory Screen [5, 12]: 22 % Control"
"C[N+](C)(C)[BH2-]C(=O)O [VIII, trimethylamine-carboxyborane]",50 ± 3 % Control,56 ± 6 % Control,–,–,14 ± 4 % Control,82 ± 5 % Control,50%,93 ± 3%,63 ± 4 % Control,122 ± 14 % Control,70 ± 20 % Control,127 ± 22 % Control,29 % Control,at least 82%,79 % Control,–,–,–,–,–,"uncoupling with α-ketoglutarate as substrate (liver mitochondria [8]): uncoupling; activity at 5 µmol (cAMP levels in PMNs; pH 7.4, 5 μmoles, in vitro, read-out: PMNs cAMP Level): 99%; inhibition of the writhing reflex (CF1 male mice; text summary of Table II): 70%; stability to air and water/moisture [9]: stable in air and H2 O"
"C[N+]1([BH2-]C#N)CCOCC1 [XIV, O(CH2 CH2)2 N(CH3).BH2 CN]",50 ± 3 % Control,13 ± 5 % Control,–,165%,37 ± 5 % Control,68 ± 7 % Control,50%,38 ± 3%,36 ± 5 % Control,62 ± 10 % Control,51 ± 16 % Control,140 ± 47 % Control,–,–,–,at least 75%,inhibited,65%,23 mg/kg,no alteration,Writhing Reflex (CF1 male mice; 1/3 dose (of 20 mg/kg)): 78 % Control; Anti-inflammatory Screen ([5]; 1/3 dose (of 10 mg/kg × 2)): 91 % Control
"C[N+](C)([BH2-]C#N)CCC#N [XIX, 3-Dimethylaminopropionitrile-cyanoborane]",100 ± 9 % Control,15 ± 3 % Control,> 30%,199%,17 ± 5 % Control,66 ± 4 % Control,–,53 ± 7%,24 ± 7 % Control,43 ± 16 % Control,33 ± 8 % Control,105 ± 33 % Control,89 % Control,at least 82%,74 % Control,at least 75%,inhibited,99%,140 mg/kg,no alteration,–
"N#C[BH2-][NH3+] [XVII, ammonia-cyanoborane]",100 ± 2 % Control,48 ± 6 % Control,> 30%,93%,26 ± 4 % Control,75 ± 5 % Control,–,55 ± 6%,60 ± 11 % Control,112 ± 7 % Control,40 ± 9 % Control,149 ± 27 % Control,50 % Control,–,51 % Control,–,–,–,30 mg/kg,–,"inhibition of the carrageenan induced edema in mouse foot pads ([5]; text summary of Table II): at least 40%; loss of hydrogen (hydrolytic stability) ([9]; concentrated HCl, 70 hr, room temperature): 8%"
